Source: ChEMBL document CHEMBL1201862, “PubChem BioAssay data set” (2004)
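Grown in 96-well plates, cells were treated for 48 hours with each compound at five concentrations. Insufficient inhibition: endpoint recorded as highest concentration tested. GI50 is the concentration that inhibits growth by half.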 Active and inactive are the calls of the source. No stated cut-off is given here; in the data, active = GI50 up to about 1.1 µM and inactive = higher.

How the values were obtained:
Assay in all cases: NCI-60 cell line screen, 48 h
[1] = system: KM12
[2] = system: TK-10
[3] = system: NCI/ADR-RES
[4] = system: OVCAR-8
[5] = system: U-251
[6] = system: CAKI-1
[7] = system: 786-0
[8] = system: SK-OV-3
[9] = system: UO-31
[10] = system: NCI-H522
[11] = system: IGROV-1
[12] = system: SK-MEL-5
[13] = system: MOLT-4
[14] = system: OVCAR-5
[15] = system: Hs-578T
[16] = system: HCC 2998
[17] = system: RXF 393
[18] = system: DU-145
[19] = system: PC-3
[20] = system: OVCAR-4

SMILES	GI50 [1]	GI50 [2]	GI50 [3]	GI50 [4]	GI50 [5]	GI50 [6]	GI50 [7]	GI50 [8]	GI50 [9]	GI50 [10]	GI50 [11]	GI50 [12]	GI50 [13]	GI50 [14]	GI50 [15]	GI50 [16]	GI50 [17]	GI50 [18]	GI50 [19]	GI50 [20]
COc1cc(C2c3cc4c(cc3OC(N3CCCC3)C2C)OCO4)cc(OC)c1O (configuration not stated)	6.59 µM (inactive)	19.4 µM (inactive)	5.93 µM (inactive)	24 µM (inactive)	11.6 µM (inactive)	16.1 µM (inactive)	13.9 µM (inactive)	11.5 µM (inactive)	44.3 µM (inactive)	3.61 µM (inactive)	19.4 µM (inactive)	4.9 µM (inactive)	24.6 µM (inactive)	61.5 µM (inactive)	4.66 µM (inactive)	28.2 µM (inactive)	7.46 µM (inactive)	31.7 µM (inactive)	20.8 µM (inactive)	59.6 µM (inactive)
CC12CCCCC1=[N+]([O-])C(C)(C)N2O (configuration not stated)	> 100 µM (inactive)	> 100 µM (inactive)	> 100 µM (inactive)	> 100 µM (inactive)	> 100 µM (inactive)	> 100 µM (inactive)	> 100 µM (inactive)	> 100 µM (inactive)	> 100 µM (inactive)		> 100 µM (inactive)	> 100 µM (inactive)		> 100 µM (inactive)	> 100 µM (inactive)	> 100 µM (inactive)	> 100 µM (inactive)	> 100 µM (inactive)	> 100 µM (inactive)	> 100 µM (inactive)
CC1=NN(C(=O)CC(=O)Nc2ccc(Cl)cc2)C(=O)C1/N=N\c1ccc(S(=O)(=O)c2ccc(/N=N/C3C(=O)N(C(=O)CC(=O)Nc4ccc(Cl)cc4)N=C3C)cc2)cc1 (configuration not stated)	> 100 µM (inactive)	35.7 µM (inactive)	> 100 µM (inactive)	> 100 µM (inactive)	22.4 µM (inactive)	> 100 µM (inactive)	> 100 µM (inactive)	> 100 µM (inactive)	> 100 µM (inactive)	> 100 µM (inactive)	> 100 µM (inactive)	95.7 µM (inactive)	> 100 µM (inactive)	42.3 µM (inactive)	> 100 µM (inactive)	> 100 µM (inactive)	41.5 µM (inactive)	> 100 µM (inactive)	> 100 µM (inactive)	> 100 µM (inactive)
CCN(CCCl)c1cc(CN(C)C)cc(NC(=O)c2ccc(C(=O)Nc3cccc(CN(C)C)c3)cc2)c1	1.28 µM (inactive)	3.73 µM (inactive)	> 100 µM (inactive)	0.889 µM (active)	0.225 µM (active)	32.6 µM (inactive)	0.383 µM (active)	1.91 µM (inactive)	27.7 µM (inactive)	0.0161 µM (active)	0.274 µM (active)	0.213 µM (active)	0.261 µM (active)	10.6 µM (inactive)	0.23 µM (active)	1.26 µM (inactive)	0.247 µM (active)	3.74 µM (inactive)	0.305 µM (active)	0.607 µM (active)
Cc1cc2c(c3oc(C4(C)OC4C4OC4C)cc(=O)c13)C(=O)c1c(O)c(C3CC(C)(N(C)C)C(O)C(C)O3)cc(C3CC(N(C)C)C(O)C(C)O3)c1C2=O (configuration not stated)		0.000197 µM (active)	0.000118 µM (active)	0.0025 µM (active)	4.1e-05 µM (active)	5.46e-05 µM (active)	0.000129 µM (active)	0.000215 µM (active)	0.000557 µM (active)	0.00275 µM (active)	0.000951 µM (active)	0.00112 µM (active)	0.0025 µM (active)	8.95e-05 µM (active)	0.000349 µM (active)	0.00014 µM (active)	0.000104 µM (active)	6.85e-05 µM (active)	6.52e-05 µM (active)	
COc1cccc(C2ON=C(c3ccccc3)N2C23CC4CC(CC(C4)C2)C3)c1 (configuration not stated)	> 10 µM (inactive)	> 10 µM (inactive)	> 10 µM (inactive)	> 10 µM (inactive)	> 10 µM (inactive)	> 10 µM (inactive)	> 10 µM (inactive)	> 10 µM (inactive)		> 10 µM (inactive)	> 10 µM (inactive)	> 10 µM (inactive)	5.5 µM (inactive)	> 10 µM (inactive)	> 10 µM (inactive)	> 10 µM (inactive)	> 10 µM (inactive)	> 10 µM (inactive)	9.35 µM (inactive)	5.46 µM (inactive)
O=C1CSC(c2ccccc2)N1c1nc2cc3sc(N4C(=O)CSC4c4ccccc4)nc3cc2s1 (configuration not stated)	17.5 µM (inactive)	53.2 µM (inactive)	25.2 µM (inactive)	70.8 µM (inactive)	38.2 µM (inactive)	39.5 µM (inactive)	> 100 µM (inactive)	> 100 µM (inactive)	40.6 µM (inactive)	6.87 µM (inactive)	23.4 µM (inactive)	32.3 µM (inactive)	5.86 µM (inactive)	60 µM (inactive)	> 51.2 µM (inactive)	> 93.3 µM (inactive)	> 100 µM (inactive)	15.2 µM (inactive)	48.4 µM (inactive)	60.1 µM (inactive)
C1CCSCCCCSCCCCSCCCCSC1	> 100 µM (inactive)	> 100 µM (inactive)	> 100 µM (inactive)	> 100 µM (inactive)	> 100 µM (inactive)	> 100 µM (inactive)	> 100 µM (inactive)	> 100 µM (inactive)	> 100 µM (inactive)	> 100 µM (inactive)	> 100 µM (inactive)	> 100 µM (inactive)		> 100 µM (inactive)	> 100 µM (inactive)	> 100 µM (inactive)	> 100 µM (inactive)	> 100 µM (inactive)	> 100 µM (inactive)	> 100 µM (inactive)
COc1ccc(/C=C/C2=NN(c3cccc(S(=O)(=O)O)c3)C3(C2)SCC(=O)N3c2nc3ccccc3s2)cc1 (configuration not stated)	> 100 µM (inactive)	86.3 µM (inactive)	59 µM (inactive)	60.7 µM (inactive)	46.2 µM (inactive)	> 100 µM (inactive)	76.7 µM (inactive)		51.1 µM (inactive)	35.2 µM (inactive)	30.8 µM (inactive)	58.9 µM (inactive)	17.5 µM (inactive)	> 100 µM (inactive)	> 100 µM (inactive)	> 100 µM (inactive)	> 100 µM (inactive)	66.5 µM (inactive)	68.7 µM (inactive)	53.1 µM (inactive)
O=C(O)C1CSC2(CCCN(Cc3ccccc3)C2)N1 (configuration not stated)	> 100 µM (inactive)	> 100 µM (inactive)	> 100 µM (inactive)	> 100 µM (inactive)	> 100 µM (inactive)	> 100 µM (inactive)	> 100 µM (inactive)	> 100 µM (inactive)	> 100 µM (inactive)	> 100 µM (inactive)	> 100 µM (inactive)	> 100 µM (inactive)	> 20.7 µM (inactive)	> 100 µM (inactive)	> 100 µM (inactive)	> 100 µM (inactive)	> 100 µM (inactive)	> 100 µM (inactive)	> 100 µM (inactive)	> 100 µM (inactive)
COC1CC(O[C@H]2CC[C@@]3(C)[C@@H](CC[C@]4(O)[C@@H]3CC[C@]3(C)[C@@H](C(C)=O)[C@H](OC(=O)CC(C)C)[C@@H](OC(=O)c5ccccc5)[C@@]34O)C2)OC(C)C1OC1CC(OC)C(OC2OC(C)C(O)C(OC)C2O)C(C)O1 (some centres not stated)	12.9 µM (inactive)	18.3 µM (inactive)	19.9 µM (inactive)	20 µM (inactive)	18 µM (inactive)	17.7 µM (inactive)	> 25 µM (inactive)	> 25 µM (inactive)	9.46 µM (inactive)	13.1 µM (inactive)	11.6 µM (inactive)	17.8 µM (inactive)	7.08 µM (inactive)	> 25 µM (inactive)	8.09 µM (inactive)	9.2 µM (inactive)	> 25 µM (inactive)	> 25 µM (inactive)	11.7 µM (inactive)	19.1 µM (inactive)
CCOC(=O)CO/N=C1/C(=C2/C(=O)Nc3ccccc32)Nc2ccccc21	0.0955 µM (active)	86.3 µM (inactive)	> 100 µM (inactive)	6.21 µM (inactive)	6.78 µM (inactive)	20.1 µM (inactive)	7.5 µM (inactive)	13.6 µM (inactive)	86.7 µM (inactive)	> 100 µM (inactive)	2.58 µM (inactive)	49.5 µM (inactive)	22 µM (inactive)	> 100 µM (inactive)	36.2 µM (inactive)	> 100 µM (inactive)	7.82 µM (inactive)	> 100 µM (inactive)	78.7 µM (inactive)	3.24 µM (inactive)
COc1cc(/C=C2/C[C@H]3[C@@H]4CCC5=CC(=O)CC[C@]5(C)[C@H]4CC[C@]3(C)NC2=O)cc(OC)c1OC	26.7 µM (inactive)	16.2 µM (inactive)	25.1 µM (inactive)	23.7 µM (inactive)	19.5 µM (inactive)	25.9 µM (inactive)	48.6 µM (inactive)	30.7 µM (inactive)	0.9 µM (active)	14.1 µM (inactive)	24.7 µM (inactive)	11.9 µM (inactive)	10.2 µM (inactive)	13.1 µM (inactive)	23 µM (inactive)	21.1 µM (inactive)	12.5 µM (inactive)	21 µM (inactive)	21.1 µM (inactive)	39.4 µM (inactive)
O=[N+]([O-])c1ccc(Cl)cc1N/N=C/c1cccs1	> 100 µM (inactive)	> 100 µM (inactive)	> 100 µM (inactive)	> 100 µM (inactive)	> 100 µM (inactive)	> 100 µM (inactive)	> 100 µM (inactive)	> 100 µM (inactive)	> 100 µM (inactive)	> 100 µM (inactive)	> 100 µM (inactive)	> 100 µM (inactive)	> 100 µM (inactive)		72.4 µM (inactive)	> 100 µM (inactive)	> 100 µM (inactive)	> 100 µM (inactive)	> 100 µM (inactive)	> 100 µM (inactive)
